Publication PMC10541190 (The Journal of Clinical Investigation, 2023)
Where “and” joins values, the source holds several entries; their conditions need not be identical. Equal values may be shown once. Read-outs that look alike come from different tables or passages of the source.

Tests used:
[1] = tested on: SARS-CoV-2 (Belgium-GHB-03021); format: cell-based
[2] = tested on: SARS-CoV-2 (USA-WA1/2020); assay: microbe, parasite or virus in culture; format: cell-based; conditions: Severe acute respiratory syndrome coronavirus 2, Vero
[3] = tested on: SARS-CoV-2 (USA-WA1/2020); assay: microbe, parasite or virus in culture; format: cell-based; conditions: Severe acute respiratory syndrome coronavirus 2, Calu-3, read-out: EC50, SARS-CoV-2 infection
[4] = tested on: rVSV-SARS-CoV-2-S; assay: microbe, parasite or virus in culture; format: cell-based; conditions: Severe acute respiratory syndrome coronavirus 2, Vero, read-out: EC50, rVSV-SARS-CoV-2-S infection
[5] = tested on: SARS-CoV-2 (USA-WA1/2020); assay: microbe, parasite or virus in culture; format: cell-based; conditions: Severe acute respiratory syndrome coronavirus 2, read-out: EC50, viral replication by plaque assay
[6] = tested on: SARS-CoV-2 (USA-WA1/2020); assay: microbe, parasite or virus in culture; format: cell-based; conditions: Severe acute respiratory syndrome coronavirus 2, read-out: EC50, nucleocapsid transcript expression by RT-qPCR
[7] = tested on: VEEV (TrD); assay: microbe, parasite or virus in culture; format: cell-based; conditions: Venezuelan equine encephalitis virus, U-87 MG, read-out: EC50, VEEV (TrD) infection
[8] = tested on: DENV2; assay: microbe, parasite or virus in culture; format: cell-based; conditions: Dengue virus, DENV2, Huh-7, read-out: EC50, DENV2 replication
[9] = tested on: EBOV (Kikwit isolate); assay: microbe, parasite or virus in culture; format: cell-based; conditions: Zaire ebolavirus, Huh-7, read-out: EC50, EBOV replication
[10] = tested on: MARV (Ci67 strain); assay: organism not typed; format: cell-based; conditions: Huh-7, read-out: EC50, MARV replication
[11] = tested on: MPOXV 2003 and MPOXV 2022; assay: microbe, parasite or virus in culture; format: cell-based; conditions: Monkeypox virus, A549, read-out: EC50, monkeypox replication
[12] = tested on: VEEV (TrD); format: cell-based
[13] = molecular target: ErbB2 (HER2) (Homo sapiens, UniProt P04626); assay: biochemical; conditions: read-out: ErbB2 activity (%)
Chain of ErbB2 (HER2) (P04626 23-1255): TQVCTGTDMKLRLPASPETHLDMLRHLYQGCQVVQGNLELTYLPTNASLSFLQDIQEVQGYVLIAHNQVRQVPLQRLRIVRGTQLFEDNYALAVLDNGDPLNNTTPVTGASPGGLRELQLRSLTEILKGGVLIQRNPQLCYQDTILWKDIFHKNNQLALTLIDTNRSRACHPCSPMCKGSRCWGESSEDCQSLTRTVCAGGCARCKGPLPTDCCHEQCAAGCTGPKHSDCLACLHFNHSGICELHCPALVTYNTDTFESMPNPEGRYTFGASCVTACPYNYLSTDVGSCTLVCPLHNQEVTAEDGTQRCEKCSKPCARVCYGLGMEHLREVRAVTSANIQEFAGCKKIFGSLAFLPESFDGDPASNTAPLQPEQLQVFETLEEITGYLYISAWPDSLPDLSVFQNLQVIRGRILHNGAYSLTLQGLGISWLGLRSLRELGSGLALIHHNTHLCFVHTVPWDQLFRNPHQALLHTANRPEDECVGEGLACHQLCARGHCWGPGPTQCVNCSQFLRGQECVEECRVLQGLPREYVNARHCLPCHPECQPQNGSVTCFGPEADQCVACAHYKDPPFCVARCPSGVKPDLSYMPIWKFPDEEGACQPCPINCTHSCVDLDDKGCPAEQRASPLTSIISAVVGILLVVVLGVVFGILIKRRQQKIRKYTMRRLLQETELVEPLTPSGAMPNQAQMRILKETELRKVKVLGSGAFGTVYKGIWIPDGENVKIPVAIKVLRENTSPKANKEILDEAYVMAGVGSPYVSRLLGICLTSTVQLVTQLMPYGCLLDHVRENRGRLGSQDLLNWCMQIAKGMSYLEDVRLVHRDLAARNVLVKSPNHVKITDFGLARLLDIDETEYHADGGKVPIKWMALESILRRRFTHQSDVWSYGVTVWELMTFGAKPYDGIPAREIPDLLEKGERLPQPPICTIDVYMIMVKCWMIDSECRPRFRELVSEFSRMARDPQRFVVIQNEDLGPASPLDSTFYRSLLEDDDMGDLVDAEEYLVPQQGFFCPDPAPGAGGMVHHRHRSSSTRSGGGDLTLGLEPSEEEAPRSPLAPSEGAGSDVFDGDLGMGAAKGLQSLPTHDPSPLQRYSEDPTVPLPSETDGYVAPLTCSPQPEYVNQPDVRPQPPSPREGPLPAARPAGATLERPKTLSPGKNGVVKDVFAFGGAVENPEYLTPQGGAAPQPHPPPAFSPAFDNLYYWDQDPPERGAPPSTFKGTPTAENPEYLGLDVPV

[14] = molecular target: ErbB4 (Homo sapiens, UniProt Q15303); assay: biochemical; conditions: read-out: ErbB4 activity (%)
Chain of ErbB4 (Homo sapiens, UniProt Q15303) (Q15303 26-1308): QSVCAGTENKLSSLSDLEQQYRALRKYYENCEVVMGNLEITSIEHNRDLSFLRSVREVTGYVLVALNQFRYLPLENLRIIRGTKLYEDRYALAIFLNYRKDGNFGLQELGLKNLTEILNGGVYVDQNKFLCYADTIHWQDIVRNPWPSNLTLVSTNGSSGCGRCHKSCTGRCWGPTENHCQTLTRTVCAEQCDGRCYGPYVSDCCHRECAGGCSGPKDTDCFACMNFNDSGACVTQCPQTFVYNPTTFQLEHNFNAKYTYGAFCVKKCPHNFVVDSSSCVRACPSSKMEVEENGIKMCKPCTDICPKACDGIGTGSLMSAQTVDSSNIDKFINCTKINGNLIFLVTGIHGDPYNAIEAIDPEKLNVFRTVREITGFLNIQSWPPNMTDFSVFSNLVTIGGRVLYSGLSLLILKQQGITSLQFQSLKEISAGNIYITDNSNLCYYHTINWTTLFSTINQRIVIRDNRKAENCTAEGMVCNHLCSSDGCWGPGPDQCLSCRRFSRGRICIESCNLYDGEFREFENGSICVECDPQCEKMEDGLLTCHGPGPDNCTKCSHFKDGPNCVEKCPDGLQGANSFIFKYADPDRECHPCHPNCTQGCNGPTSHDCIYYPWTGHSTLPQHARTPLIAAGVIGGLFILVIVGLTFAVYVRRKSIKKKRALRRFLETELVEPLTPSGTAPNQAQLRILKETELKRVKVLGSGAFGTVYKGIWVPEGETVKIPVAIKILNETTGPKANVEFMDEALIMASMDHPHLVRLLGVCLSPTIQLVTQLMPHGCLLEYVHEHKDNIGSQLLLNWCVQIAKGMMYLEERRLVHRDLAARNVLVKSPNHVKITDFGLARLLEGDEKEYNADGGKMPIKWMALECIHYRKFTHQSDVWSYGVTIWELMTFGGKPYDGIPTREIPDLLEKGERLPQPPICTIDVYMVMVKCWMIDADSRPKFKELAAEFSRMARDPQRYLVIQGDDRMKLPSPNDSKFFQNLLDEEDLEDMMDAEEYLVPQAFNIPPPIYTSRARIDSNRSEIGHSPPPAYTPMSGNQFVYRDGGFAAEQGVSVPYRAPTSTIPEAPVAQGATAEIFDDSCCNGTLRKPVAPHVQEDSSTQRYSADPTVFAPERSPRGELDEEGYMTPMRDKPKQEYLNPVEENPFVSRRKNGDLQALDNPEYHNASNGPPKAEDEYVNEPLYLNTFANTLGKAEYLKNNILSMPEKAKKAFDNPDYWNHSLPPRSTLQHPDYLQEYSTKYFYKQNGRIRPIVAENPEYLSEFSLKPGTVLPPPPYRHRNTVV

[15] = tested on: SARS-CoV-2; format: cell-based
[16] = tested on: rVSV-SARS-CoV-2-S; format: cell-based
[17] = tested on: SARS-CoV-2; format: cell-based; remark: listed apart in the source
[18] = tested on: ErbB4; format: cell-based
[19] = tested on: TNF-α, IL-1β, IL-6, MCP-1; format: cell-based, human
[20] = tested on: claudin-7 tight junctions; format: cell-based, human
[21] = tested on: SARS-CoV-2 (USA-WA1/2020); format: cell-based
[22] = tested on: Vero cells; conditions: African green monkey
[23] = tested on: Calu-3 cells; conditions: human, 1.25 µM
[24] = tested on: Huh7 cells; conditions: human
[25] = tested on: A549 cells; conditions: human
[26] = tested on: VEEV (TC-83); conditions: mouse, in vivo
[27] = mouse, in vivo
[28] = tested on: brain microvascular endothelial cell monolayer
[29] = tested on: ErbB1; conditions: cited from earlier work
[30] = tested on: SARS-CoV-2 main protease (Mpro); conditions: cited from earlier work
[31] = in vitro; conditions: African green monkey
[32] = in vitro; conditions: human, Cell viability (%)
[33] = in vitro; conditions: human, Huh7 cell viability (%)
[34] = tested on: RAF1; conditions: cited from earlier work
[35] = tested on: STK10; conditions: cited from earlier work
[36] = tested on: RIPK2; conditions: cited from earlier work
[37] = tested on: SLK; conditions: cited from earlier work
[38] = human, in vivo; cited from earlier work

Compound: CS(=O)(=O)CCNCc1ccc(-c2ccc3ncnc(Nc4ccc(OCc5cccc(F)c5)c(Cl)c4)c3c2)o1 [Lapatinib]
- rescue of Vero-eGFP cells from SARS-CoV-2-induced lethality, dose response [1]: dose-dependent rescue
- EC50 ([2]; 24 h, read-out: SARS-CoV-2 EC50): 0.5 µM
- EC50 ([2]; read-out: EC50, SARS-CoV-2 infection): 0.5 µM
- EC50 [3]: 0.7 µM
- EC50 [4]: 3.2 µM
- EC50 [5]: 0.4 µM
- EC50 [6]: < 0.2 µM
- EC50 [7]: 0.9 µM
- EC50 [8]: 2 µM
- EC50 [9]: 2.5 µM
- EC50 [10]: 2 µM
- EC50 [11]: 6.2 to 7.6 µM
- VEEV (TrD) replication in vascular and brain sides of the gNVU [12]: suppressed VEEV (TrD) replication
- activity at 0.001 µM [13]: 91.6%
- activity at 0.003 µM [13]: 84.5%
- activity at 0.009 µM [13]: 64%
- activity at 0.247 µM [13]: 14%
- activity at 2.222 µM [13]: 3.4%
- activity at 6.667 µM [13]: 2.28%
- activity at 20 µM [13]: 2%
- activity at […] [13]: 27.2% and 45.3% and 6.63%
- activity at 0.001 µM [14]: 104%
- activity at 0.003 µM [14]: 93.7%
- activity at 0.009 µM [14]: 68.4%
- activity at 0.247 µM [14]: 17.5%
- activity at 2.222 µM [14]: 6.13%
- activity at 6.667 µM [14]: 3.13%
- activity at 20 µM [14]: 2.93%
- activity at […] [14]: 31.2% and 54.5% and 8.67%
- suppression of viral infection [15]: 98% and 75% and 99% and 84% and 57%
- effect on rVSV-SARS-CoV-2-S infection when added upon or after virus binding [16]: comparable effects
- mean Manders' coefficient, colocalization of nucleocapsid and Rab7 [17]: 0.33
- number of nucleocapsid puncta per cell [17]: significantly reduced
- antiviral effect on VEEV (TC-83) upon ectopic expression of WT ErbB4 [18]: completely or partially reversed
- IL-6 concentration in ALOs' supernatants [19]: 6.30 pg/mL and 5.01 pg/mL and 5.83 pg/mL and 5.58 pg/mL and 5.85 pg/mL and 5.34 pg/mL and 4.40 pg/mL and 3.70 pg/mL
- MCP-1 concentration in ALOs' supernatants [19]: 39.85 pg/mL and 40.23 pg/mL and 32.64 pg/mL and 29.59 pg/mL and 33.59 pg/mL and 31.32 pg/mL and 47.61 pg/mL and 36.68 pg/mL
- concentration achieving cytokine levels at or lower than in uninfected monolayers [19]: 0.5 µM
- expression level of MCP-1 [19]: increased
- expression level of TNF-α, IL-1β and IL-6 [19]: dose-dependently reduced
- claudin-7 morphology and alveolar-like architecture [20]: intact claudin-7 morphology
- SARS-CoV-2 nucleocapsid staining (confocal IF) [21]: near-complete disappearance
- CC50 [22]: > 20 µM
- Calu-3 cell viability (%) [23]: 85.68%
- Huh7 cell viability (%) ([24]; 1.111 µM): 102.98%
- Huh7 cell viability (%) ([24]; 10 µM): 86.28%
- A549 viability (%) [25]: 103.13%
- mice protected [26]: 60%
- mice protected by day 10 [26]: 80%
- mice protected by day 14 [26]: 40%
- toxicity of the dose in the VEEV model [26]: nontoxic
- tolerability [27]: good tolerability
- barrier integrity (FITC-dextran permeability) [28]: maintained barrier integrity
- % of control, ErbB1 [29]: 5.3 nM 0%
- effect on SARS-CoV-2 main protease (Mpro) [30]: inhibits
- CC50 [31]: > 20 µM
- viability at 6.67 µM ([31]; Cell viability (%)): 86.8%
- viability at 20 µM ([31]; Cell viability (%)): 64%
- viability at 20 µM ([31]; Vero cell viability (%)): 85%
- viability at 20 µM [32]: 68.5%
- viability at 0.37 µM [33]: 103%
- viability at 3.333 µM [33]: 105%
- Other targets: RAF1 (% of control) [34]: RAF1 (0%), STK10 (1.4%), RIPK2 (6.1%), MAP2K5 (12%), SLK (18%)
- Other targets: STK10 (% of control) [35]: RAF1 (0%), STK10 (1.4%), RIPK2 (6.1%), MAP2K5 (12%), SLK (18%)
- Other targets: RIPK2 (% of control) [36]: RAF1 (0%), STK10 (1.4%), RIPK2 (6.1%), MAP2K5 (12%), SLK (18%)
- Other targets: SLK (% of control) [37]: RAF1 (0%), STK10 (1.4%), RIPK2 (6.1%), MAP2K5 (12%), SLK (18%)
- estimated incidence of pneumonitis, interstitial lung disease or lung fibrosis [38]: 0.2%
